Reference: patent US11477981B2, “Ice nucleation formulations for cryopreservation and stabilization of biologics” (The General Hospital Corporation, priority 2016, dated 2022)

B1: ice nucleation active (INA) protein: ice nucleation active protein InaZ of Pseudomonas syringae (UniProt P06620-1; SEQ ID NO: 1) (protein, listed as Pseudomonas syringae)
chain: MNLDKALVLRTCANNMADHCGLIWPASGTVESRYWQSTRRHENGLVGLLWGAGTSAFLSVHADARWIVCEVAVADIISLEEPGMVKFPRAEVVHVGDRISASHFISARQADPASTSTSTLTPMPTAIPTPMPAVASVTLPVAEQARHEVFDVASVSAAAAPVNTLPVTTPQNVQTATYGSTLSGDNHSRLIAGYGSNETAGNHSDLIAGYGSTGTAGSDSWLVAGYGSTQTAGGDSALTAGYGSTQTAREGSNLTAGYGSTGTAGSDSSLIAGYGSTQTSGGDSSLTAGYGSTQTAQEGSNLTAGYGSTGTAGSDSSLIAGYGSTQTSGGDSSLTAGYGSTQTAQEGSNLTAGYGSTGTAGVDSSLIAGYGSTQTSGSDSALTAGYGSTQTAQEGSNLTAGYGSTGTAGSDSSLIAGYGSTQTSGSDSSLTAGYGSTQTAQEGSILTAGYGSTGTAGVDSSLIAGYGSTQTSGSDSALTAGYGSTQTAQEGSNLTAGYGSTGTAGADSSLIAGYGSTQTSGSESSLTAGYGSTQTAREGSTLTAGYGSTGTAGADSSLIAGYGSTQTSGSESSLTAGYGSTQTAQQGSVLTSGYGSTQTAGAASNLTTGYGSTGTAGHESFIIAGYGSTQTAGHKSILTAGYGSTQTARDGSDLIAGYGSTGTAGSGSSLIAGYGSTQTASYRSMLTAGYGSTQTAREHSDLVTGYGSTSTAGSNSSLIAGYGSTQTAGFKSILTAGYGSTQTAQERTSLVAGYGSTSTAGYSSSLIAGYGSTQTAGYESTLTAGYGSTQTAQENSSLTTGYGSTSTAGYSSSLIAGYGSTQTAGYESTLTAGYGSTQTAQERSDLVTGYGSTSTAGYASSLIAGYGSTQTAGYESTLTAGYGSTQTAQENSSLTTGYGSTSTAGFASSLISGYGSTQTAGYKSTLTAGYGSTQTAEYGSSLTAGYGSTATAGQDSSLIAGYGSSLTSGIRSFLTAGYGSTLIAGLRSVLIAGYGSSLTSGVRSTLTAGYGSNQIASYGSSLIAGHESIQVAGNKSMLIAGKGSSQTAGFRSTLIAGAGSVQLAGDRSRLIAGADSNQTAGDRSKLLAGNNSYLTAGDRSKLTGGHDCTLMAGDQSRLTAGKNSVLTAGARSKLIGSEGSTLSAGEDSILIFRLWDGKRYRQLVARTGENGVEADIPYYVNEDDDIVDKPDEDDDWIEVK

How the values were obtained:
[1] = Ice nucleation kinetics of picoliter-sized drops of D2O and H2O mixtures (droplet technology); type: physicochemical
Description: FIG. 7. Probability distribution of ice nucleation temperature using nanodroplet technology, wherein condition 1 is pure heavy water containing 0.1 g/L SNOMAX, condition 2 is pure water containing 0.1 g/L SNOMAX, condition 3 is pure heavy water, and condition 4 is pure water.
This disclosure has also systematically investigated the ice nucleation kinetics of picoliter-sized drops of heavy water (e.g., D2O or T2O) and light water (H2O) mixtures with freeze-dried P. syringae. […] The disclosure further investigated the effects of commonly used cryoprotectants such as ethylene glycol, propylene glycol and trehalose on the freezing characteristics of D2O and H2O mixtures. […] Furthermore, several cryoprotectants are found to depress the freezing phenomenon. Both the homogeneous and heterogeneous freezing temperatures of these aqueous solutions depend on the water activity and are independent of the nature of solute.
A self-nucleating and preservation formulation comprising heavy water and ice nucleating agents was developed with broad applications in the field of cryopreservation. […]

animals and animal cells = conditions: at normal body temperatures; cited from earlier work
[2] = background statement; cited from earlier work

| Molecule | shift of the ice nucleation kinetics profile per 25% (v/v) increase of D2O concentration ([1]; D2O+H2O mixtures containing 1 mg/ml SNOMAX) | median nucleation temperature ([1]; pure D2O, no ice nucleating agent, droplet technology) | concentration that can be toxic (animals and animal cells) | temperature at which water freezes [2] |
| --- | --- | --- | --- | --- |
| [2H]O[2H] [D2O] | shifts by about one degree | −32.1 °C | more than 20% |  |
| B1 |  |  |  | −4 to −2 °C |
